Key:
Type in all cases: biochemical
[1] = target: Trk A (Homo sapiens, UniProt P04629); assay: HotSpot kinase assay against Trk A; details: HotSpot 33P assay, ATP 10 μM-30 μM
Procedure: (§1) Kinase assays were performed using test compounds against a panel of Trk kinases: Trk A; Trk B; and Trk C. Each compound was tested at a concentration of 0.1 μM in single duplicate mode against the three kinases. Compounds were prepared as 10 mM stock solutions in DMSO prior to use in the assay. The control compound, staurosporine, was tested at 10 concentrations with three-fold serial dilution starting at 20 μM. IC50 values and curve fits were obtained using Prism (GraphPad Software). IC50 values were determined for staurosporine for comparison.
(§2) The screening was performed using the “HotSpot” assay platform. The assay measures the conversion of a peptide substrate to ^33P-labelled phosphorylated product. Briefly, specific kinase/substrate pairs along with required cofactors were prepared in reaction buffer. Specifically, the substrate was prepared in reaction buffer (20 mM Hepes, pH 7.5; 10 mM MgCl2; 1 mM EGTA; 0.02% Brij35; 0.02 mg/mL BSA; 0.1 mM Na3VO4; 2 mM DTT; 1% DMSO), followed by delivery of any required cofactor to the resulting substrate solution. The corresponding kinase was delivered into the substrate solution and the reaction mixture was mixed gently. Compound was delivered into the reaction mixture, followed 15-20 min later by addition of a mixture of ATP (Sigma, St. Louis Mo.) and ^33P ATP (specific activity 0.01 μCi/μL final; Perkin Elmer, Waltham, Mass.) to a final concentration of 10 μM-30 μM to initiate the reaction. Reactions were carried out at RT for 120 min, followed by spotting of the reactions onto P81 ion exchange filter paper (Whatman #3698-915; Whatman Inc., Piscataway, N.J.). Unbound phosphate was removed by extensive washing of filters in 0.75% phosphoric acid. […] The percent of enzyme inhibition was calculated based on the percent of remaining kinase activity.

[2] = target: T1, activated IR (Homo sapiens, UniProt P06213); assay: In vitro IR enzymatic assay (ADP-Glo); details: ATP 50 μM; for inhibition at 1 µM: compound 1 μM; for inhibition at 3 µM: compound 3 μM; for inhibition at 30 µM: compound 30 μM
T1 construct: purchased Millipore 14-803
Procedure: (§3) Inhibition of IGF-1R and IR kinases by compounds described herein were tested. The IC50 values were measured in vitro using an ADP-Glo kinase assay Kit (Promega). For the IGF-1R assay, active recombinant IGF-1R (Millipore #14-802) was used at 1 ng/reaction, the substrate IGF-1R tide (Millipore #12-527) was used at 125 μM and ATP was used at 100 μM. For the IR assay, active recombinant IR (Millipore #14-803) was used at 1 ng/reaction, the substrate Axl tide (Millipore #12-516) was used at 125 μM and ATP at 50 μM. Kinase reactions in both assays were conducted at 30° C. for 20 min with increasing concentrations of the test compounds.
(§4) The assay results as the percent inhibition of binding are presented in Tables B2 and B3 for IGF-1R and IR respectively.

[3] = target: Trk B (Homo sapiens, UniProt Q16620); assay: HotSpot kinase assay against Trk B; details: HotSpot 33P assay, ATP 10 μM-30 μM
Procedure: as §1, §2

[4] = target: Trk C (Homo sapiens, UniProt Q16288); assay: HotSpot kinase assay against Trk C; details: HotSpot 33P assay, ATP 10 μM-30 μM
Procedure: as §1, §2

[5] = target: T2, activated IGF-1R (Homo sapiens, UniProt P08069); assay: In vitro IGF-1R enzymatic assay (ADP-Glo); details: ATP 100 μM; for inhibition at 1 µM: compound 1 μM; for inhibition at 3 µM: compound 3 μM; for inhibition at 10 µM: compound 10 μM; for inhibition at 30 µM: compound 30 μM
T2 construct: purchased Millipore 14-802
Procedure: as §3, §4

Sequence of Trk A (P04629 33-796): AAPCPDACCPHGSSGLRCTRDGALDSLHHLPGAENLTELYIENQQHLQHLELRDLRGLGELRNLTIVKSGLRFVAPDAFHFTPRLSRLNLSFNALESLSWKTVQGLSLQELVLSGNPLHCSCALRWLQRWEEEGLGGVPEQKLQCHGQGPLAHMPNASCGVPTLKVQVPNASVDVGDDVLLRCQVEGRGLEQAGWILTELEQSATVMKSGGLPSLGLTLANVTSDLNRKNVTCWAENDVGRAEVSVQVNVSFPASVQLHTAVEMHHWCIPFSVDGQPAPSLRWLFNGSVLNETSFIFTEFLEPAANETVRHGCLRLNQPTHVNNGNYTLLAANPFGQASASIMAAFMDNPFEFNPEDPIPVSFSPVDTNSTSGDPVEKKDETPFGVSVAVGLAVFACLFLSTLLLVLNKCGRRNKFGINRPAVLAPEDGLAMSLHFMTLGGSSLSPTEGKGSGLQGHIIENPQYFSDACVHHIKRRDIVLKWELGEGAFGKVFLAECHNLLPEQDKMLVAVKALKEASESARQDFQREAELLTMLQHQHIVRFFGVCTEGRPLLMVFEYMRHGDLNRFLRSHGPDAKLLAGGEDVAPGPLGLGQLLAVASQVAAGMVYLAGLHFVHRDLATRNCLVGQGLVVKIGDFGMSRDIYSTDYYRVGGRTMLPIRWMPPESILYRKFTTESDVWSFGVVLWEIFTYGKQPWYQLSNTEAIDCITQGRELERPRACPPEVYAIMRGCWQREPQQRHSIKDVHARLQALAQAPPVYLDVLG
T1 sequence (P06213 28-1382): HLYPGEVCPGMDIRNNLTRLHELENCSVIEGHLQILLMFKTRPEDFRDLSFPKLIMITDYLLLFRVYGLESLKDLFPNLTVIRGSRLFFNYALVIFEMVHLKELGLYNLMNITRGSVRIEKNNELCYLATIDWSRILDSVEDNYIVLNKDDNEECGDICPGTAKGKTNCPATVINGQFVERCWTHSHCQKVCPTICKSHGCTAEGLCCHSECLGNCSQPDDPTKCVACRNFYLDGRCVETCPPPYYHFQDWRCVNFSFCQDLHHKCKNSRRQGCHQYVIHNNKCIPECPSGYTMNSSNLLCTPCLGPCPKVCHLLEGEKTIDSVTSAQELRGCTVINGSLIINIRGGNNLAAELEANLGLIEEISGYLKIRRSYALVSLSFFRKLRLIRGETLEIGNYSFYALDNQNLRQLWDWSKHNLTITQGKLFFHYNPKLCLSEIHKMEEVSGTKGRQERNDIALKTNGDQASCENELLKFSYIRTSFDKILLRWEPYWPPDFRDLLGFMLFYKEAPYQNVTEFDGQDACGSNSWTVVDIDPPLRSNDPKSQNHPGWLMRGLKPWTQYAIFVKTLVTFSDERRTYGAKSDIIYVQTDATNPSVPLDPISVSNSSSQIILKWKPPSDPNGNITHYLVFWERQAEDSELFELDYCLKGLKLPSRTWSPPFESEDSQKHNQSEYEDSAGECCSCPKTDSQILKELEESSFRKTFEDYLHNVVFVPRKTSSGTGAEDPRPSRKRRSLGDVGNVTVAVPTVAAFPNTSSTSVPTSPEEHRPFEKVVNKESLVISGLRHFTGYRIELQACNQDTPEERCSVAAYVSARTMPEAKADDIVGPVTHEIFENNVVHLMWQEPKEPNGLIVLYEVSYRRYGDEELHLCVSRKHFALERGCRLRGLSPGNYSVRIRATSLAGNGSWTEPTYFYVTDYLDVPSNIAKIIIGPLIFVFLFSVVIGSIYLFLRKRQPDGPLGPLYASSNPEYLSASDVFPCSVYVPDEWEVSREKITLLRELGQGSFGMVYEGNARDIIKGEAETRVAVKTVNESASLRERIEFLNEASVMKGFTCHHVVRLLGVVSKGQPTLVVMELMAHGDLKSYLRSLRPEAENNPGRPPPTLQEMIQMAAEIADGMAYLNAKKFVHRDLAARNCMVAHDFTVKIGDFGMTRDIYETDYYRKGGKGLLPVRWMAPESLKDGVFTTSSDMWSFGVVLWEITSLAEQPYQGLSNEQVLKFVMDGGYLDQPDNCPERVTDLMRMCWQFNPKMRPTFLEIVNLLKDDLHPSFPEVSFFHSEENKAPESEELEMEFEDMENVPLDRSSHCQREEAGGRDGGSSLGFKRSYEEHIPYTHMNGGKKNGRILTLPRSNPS
Sequence of Trk B (Q16620 32-822): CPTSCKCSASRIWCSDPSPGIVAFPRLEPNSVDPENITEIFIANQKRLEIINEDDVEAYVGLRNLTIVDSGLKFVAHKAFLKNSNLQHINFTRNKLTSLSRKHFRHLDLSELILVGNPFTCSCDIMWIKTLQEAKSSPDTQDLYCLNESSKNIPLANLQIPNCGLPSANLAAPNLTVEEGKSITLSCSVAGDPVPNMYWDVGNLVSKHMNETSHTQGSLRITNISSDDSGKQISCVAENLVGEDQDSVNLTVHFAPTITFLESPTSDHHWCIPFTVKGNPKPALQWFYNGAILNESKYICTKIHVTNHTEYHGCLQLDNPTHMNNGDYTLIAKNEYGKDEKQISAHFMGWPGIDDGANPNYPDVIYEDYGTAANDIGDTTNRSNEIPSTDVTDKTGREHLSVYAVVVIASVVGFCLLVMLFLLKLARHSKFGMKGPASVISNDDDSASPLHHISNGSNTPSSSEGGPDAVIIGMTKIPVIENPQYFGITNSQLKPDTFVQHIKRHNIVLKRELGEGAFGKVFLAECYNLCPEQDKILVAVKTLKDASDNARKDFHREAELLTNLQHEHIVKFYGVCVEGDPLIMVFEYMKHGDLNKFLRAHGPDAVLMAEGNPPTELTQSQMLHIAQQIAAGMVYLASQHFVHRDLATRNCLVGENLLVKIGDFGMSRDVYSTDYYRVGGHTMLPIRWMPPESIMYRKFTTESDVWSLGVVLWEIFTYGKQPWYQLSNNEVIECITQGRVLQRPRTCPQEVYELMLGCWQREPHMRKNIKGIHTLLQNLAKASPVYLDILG
T2 sequence (P08069 31-1367): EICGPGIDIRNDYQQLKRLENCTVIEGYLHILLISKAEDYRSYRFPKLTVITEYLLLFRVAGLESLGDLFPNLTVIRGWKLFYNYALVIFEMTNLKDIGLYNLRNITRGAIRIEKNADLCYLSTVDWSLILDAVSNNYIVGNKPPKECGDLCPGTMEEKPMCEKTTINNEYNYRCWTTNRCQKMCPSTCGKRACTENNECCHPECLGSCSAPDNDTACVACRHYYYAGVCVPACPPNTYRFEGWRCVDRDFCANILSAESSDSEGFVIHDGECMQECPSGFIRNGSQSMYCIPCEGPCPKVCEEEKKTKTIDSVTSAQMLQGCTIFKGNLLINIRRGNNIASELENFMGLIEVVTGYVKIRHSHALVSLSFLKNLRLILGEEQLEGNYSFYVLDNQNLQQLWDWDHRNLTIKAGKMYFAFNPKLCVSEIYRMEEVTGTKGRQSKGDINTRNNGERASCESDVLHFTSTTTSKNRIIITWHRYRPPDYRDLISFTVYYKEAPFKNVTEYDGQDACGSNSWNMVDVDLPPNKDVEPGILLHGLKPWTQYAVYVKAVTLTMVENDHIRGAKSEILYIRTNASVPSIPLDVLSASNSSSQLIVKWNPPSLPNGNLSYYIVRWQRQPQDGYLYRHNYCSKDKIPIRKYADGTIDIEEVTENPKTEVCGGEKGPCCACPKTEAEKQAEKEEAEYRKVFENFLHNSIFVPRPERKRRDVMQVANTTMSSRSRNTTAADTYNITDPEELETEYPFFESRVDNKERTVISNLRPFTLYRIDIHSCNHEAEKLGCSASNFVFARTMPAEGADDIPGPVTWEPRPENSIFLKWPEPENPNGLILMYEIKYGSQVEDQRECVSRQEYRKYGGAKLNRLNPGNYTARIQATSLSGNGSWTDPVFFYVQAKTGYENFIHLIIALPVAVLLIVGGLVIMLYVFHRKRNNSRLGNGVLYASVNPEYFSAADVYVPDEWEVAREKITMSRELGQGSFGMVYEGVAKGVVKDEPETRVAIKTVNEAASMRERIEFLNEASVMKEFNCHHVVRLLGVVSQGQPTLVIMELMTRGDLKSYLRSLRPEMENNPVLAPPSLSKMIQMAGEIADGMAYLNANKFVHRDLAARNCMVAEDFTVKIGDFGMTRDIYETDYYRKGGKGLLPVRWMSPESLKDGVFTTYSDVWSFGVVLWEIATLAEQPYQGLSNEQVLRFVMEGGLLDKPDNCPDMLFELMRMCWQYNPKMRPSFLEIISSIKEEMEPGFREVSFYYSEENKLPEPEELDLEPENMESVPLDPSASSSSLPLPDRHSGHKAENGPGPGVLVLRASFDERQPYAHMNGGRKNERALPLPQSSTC
Sequence of Trk C (Q16288 32-839): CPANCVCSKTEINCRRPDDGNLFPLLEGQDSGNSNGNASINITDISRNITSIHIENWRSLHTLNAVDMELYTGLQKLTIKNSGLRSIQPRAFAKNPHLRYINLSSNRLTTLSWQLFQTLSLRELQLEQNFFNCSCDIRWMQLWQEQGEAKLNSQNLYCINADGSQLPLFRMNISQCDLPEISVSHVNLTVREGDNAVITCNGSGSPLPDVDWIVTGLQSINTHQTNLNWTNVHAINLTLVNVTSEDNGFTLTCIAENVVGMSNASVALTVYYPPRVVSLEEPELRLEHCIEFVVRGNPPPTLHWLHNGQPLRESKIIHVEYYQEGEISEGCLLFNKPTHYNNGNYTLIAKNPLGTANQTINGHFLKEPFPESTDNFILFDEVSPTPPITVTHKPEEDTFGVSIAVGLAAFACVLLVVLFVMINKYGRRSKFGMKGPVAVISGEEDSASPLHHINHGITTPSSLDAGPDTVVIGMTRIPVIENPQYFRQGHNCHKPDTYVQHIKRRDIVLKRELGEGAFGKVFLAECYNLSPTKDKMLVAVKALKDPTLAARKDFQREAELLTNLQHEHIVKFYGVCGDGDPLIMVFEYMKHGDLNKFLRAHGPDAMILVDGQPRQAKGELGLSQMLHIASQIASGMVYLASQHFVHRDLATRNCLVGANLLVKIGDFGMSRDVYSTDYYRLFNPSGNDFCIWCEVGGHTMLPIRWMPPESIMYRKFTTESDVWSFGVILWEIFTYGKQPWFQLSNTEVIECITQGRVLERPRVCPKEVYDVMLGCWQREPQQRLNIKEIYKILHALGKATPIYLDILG

Row | IC50 [1] [nM] | inhibition at 1 µM [2] [%] | inhibition at 3 µM [2] [%] | inhibition at 30 µM [2] [%] | IC50 [3] [nM] | IC50 [4] [nM] | inhibition at 1 µM [5] [%] | inhibition at 3 µM [5] [%] | inhibition at 10 µM [5] [%] | inhibition at 30 µM [5] [%] | SMILES
1 | 337 | 26 | 36 | 85 | 31 | 4.8 | 16 | 26 | 55 | 77 | CN1CCN(C(=O)[C@@H]2CCCN2c2nc3c(c(Nc4cc(C5CCCC5)[nH]n4)n2)CCC3)CC1 [134b, (S)-(1-(4-(5-cyclopentyl-1H-pyrazol-3-ylamino)-6,7-dihydro-5H-cyclopenta[d]pyrimidin-2-yl)pyrrolidin-2-yl)(4-methylpiperazin-1-yl)methanone]
2 | 109 | 12 | 36 | 89 | 4 | 1.3 | – | 36 | 65 | 86 | CC(C)c1cc(Nc2nc(N3CCC[C@H]3C(=O)N3CC(F)(F)C(F)(F)C3)nc3c2CCC3)n[nH]1 [112b, (S)-(1-(4-(5-isopropyl-1H-pyrazol-3-ylamino)-6,7-dihydro-5H-cyclopenta[d]pyrimidin-2-yl)pyrrolidin-2-yl)(3,3,4,4-tetrafluoropyrrolidin-1-yl)methanone]
3 | 189 | 32 | 64 | 97 | 171 | 80.4 | 31 | 61 | 83 | 96 | O=C([C@H]1CCCN1c1nc2c(c(Nc3cc(C4CCCC4)[nH]n3)n1)CCC2)N1CC(F)(F)C(F)(F)C1 [110a, (R)-(1-(4-((5-cyclopentyl-1H-pyrazol-3-yl)amino)-6,7-dihydro-5H-cyclopenta[d]pyrimidin-2-yl)pyrrolidin-2-yl)(3,3,4,4-tetrafluoropyrrolidin-1-yl)methanone]
4 | 1910 | 19 | 9 | 60 | 265 | 110 | 10 | -1 | 15 | 43 | CC(=O)N1CCN(C(=O)[C@@H]2CCCN2c2nc3c(c(Nc4cc(C5CCCC5)n[nH]4)n2)CCC3)CC1 [137b, 1-[4-[(2S)-1-[4-[(3-cyclopentyl-1H-pyrazol-5-yl)amino]-6,7-dihydro-5H-cyclopenta[d]pyrimidin-2-yl]pyrrolidine-2-carbonyl]piperazin-1-yl]ethanone]
5 | 11 | 12 | 39 | 86 | 1 | 0.3 | 12 | 33 | 61 | 84 | O=C([C@@H]1CCCN1c1nc2c(c(Nc3cc(C4CCCC4)[nH]n3)n1)CCC2)N1CCC(F)(F)C1 [109b, (S)-(1-(4-((5-cyclopentyl-1H-pyrazol-3-yl)amino)-6,7-dihydro-5H-cyclopenta[d]pyrimidin-2-yl)pyrrolidin-2-yl)(3,3-difluoropyrrolidin-1-yl)methanone]
6 | 670 | 35 | – | – | 628 | 279 | – | – | – | – | CC(C)c1cc(Nc2nc(N3CCC[C@@H]3C(=O)N3CC(F)(F)C(F)(F)C3)nc3c2CCC3)n[nH]1 [112a, (R)-(1-(4-((5-isopropyl-1H-pyrazol-3-yl)amino)-6,7-dihydro-5H-cyclopenta[d]pyrimidin-2-yl)pyrrolidin-2-yl)(3,3,4,4-tetrafluoropyrrolidin-1-yl)methanone]
7 | 0.515 | 97 | – | – | 0.038 | 0.243 | 95 | – | – | – | O=C(Nc1nccs1)[C@@H]1CCCN1c1nc2c(c(Nc3cc(C4CCCC4)[nH]n3)n1)CCC2 [133b, (S)-1-(4-(5-cyclopentyl-1H-pyrazol-3-ylamino)-6,7-dihydro-5H-cyclopenta[d]pyrimidin-2-yl)-N-(thiazol-2-yl)pyrrolidine-2-carboxamide]
8 | 237 | 64 | – | – | 113 | 83 | 72 | – | – | – | CN1CCN(C(=O)[C@H]2CCCN2c2nc3c(c(Nc4cc(C5CCCC5)n[nH]4)n2)CCC3)CC1=O [136a, 4-[(2R)-1-[4-[(3-cyclopentyl-1H-pyrazol-5-yl)amino]-6,7-dihydro-5H-cyclopenta[d]pyrimidin-2-yl]pyrrolidine-2-carbonyl]-1-methyl-piperazin-2-one]
9 | 141 | 21 | 46 | 92 | 5 | 1.4 | – | 57 | 80 | 94 | CC(C)c1cc(Nc2nc(N3CCC[C@H]3C(=O)N3CCCC3)nc3c2CCC3)n[nH]1 [138b, (S)-(1-(4-((5-isopropyl-1H-pyrazol-3-yl)amino)-6,7-dihydro-5H-cyclopenta[d]pyrimidin-2-yl)pyrrolidin-2-yl)(pyrrolidin-1-yl)methanone]
10 | 135 | 17 | 47 | 97 | 231 | 146 | 27 | 47 | 74 | 96 | CC1(C)CCN(C(=O)[C@H]2CCCN2c2nc3c(c(Nc4cc(C5CCCC5)n[nH]4)n2)CCC3)CC1 [141a, (R)-(1-(4-((5-cyclopentyl-1H-pyrazol-3-yl)amino)-6,7-dihydro-5H-cyclopenta[d]pyrimidin-2-yl)pyrrolidin-2-yl)(4,4-dimethylpiperidin-1-yl)methanone]
11 | 669 | 42 | – | – | 258 | 144 | – | – | – | – | CC(C)c1cc(Nc2nc(N3CCC[C@@H]3C(=O)N3CCC(F)(F)C3)nc3c2CCC3)n[nH]1 [139a, (R)-(3,3-difluoropyrrolidin-1-yl)(1-(4-((5-isopropyl-1H-pyrazol-3-yl)amino)-6,7-dihydro-5H-cyclopenta[d]pyrimidin-2-yl)pyrrolidin-2-yl)methanone]
12 | 26 | 30 | 60 | 97 | 2 | 1.2 | 35 | 57 | 83 | 95 | CN(C(=O)[C@@H]1CCCN1c1nc2c(c(Nc3cc(C4CCCC4)n[nH]3)n1)CCC2)c1nccs1 [70b, (2S)-1-[4-[(3-cyclopentyl-1H-pyrazol-5-yl)amino]-6,7-dihydro-5H-cyclopenta[d]pyrimidin-2-yl]-N-methyl-N-thiazol-2-yl-pyrrolidine-2-carboxamide]
13 | 41 | 3 | 21 | 74 | 2 | 0.8 | 1 | 18 | 34 | 68 | O=C([C@@H]1CCCN1c1nc2c(c(Nc3cc(C4CCCC4)[nH]n3)n1)CCC2)N1CC(F)(F)C(F)(F)C1 [110b, (S)-(1-(4-(5-cyclopentyl-1H-pyrazol-3-ylamino)-6,7-dihydro-5H-cyclopenta[d]pyrimidin-2-yl)pyrrolidin-2-yl)(3,3,4,4-tetrafluoropyrrolidin-1-yl)methanone]
14 | 53 | 35 | – | – | 2 | 0.7 | – | – | – | – | CC(C)c1cc(Nc2nc(N3CCC[C@H]3C(=O)N3CCC(F)(F)C3)nc3c2CCC3)n[nH]1 [111b, (S)-(3,3-difluoropyrrolidin-1-yl)(1-(4-((5-isopropyl-1H-pyrazol-3-yl)amino)-6,7-dihydro-5H-cyclopenta[d]pyrimidin-2-yl)pyrrolidin-2-yl)methanone]

Reference: US20170137410A1, “FUSED CYCLOALKYL-PYRIMIDINE COMPOUNDS AND USES THEREOF” (Medivation Technologies, Inc., priority 2014, published 2017)
